# Tests used:
# [1] = test system: rhinovirus-ribonucleic acid; experiment: Role of the hydrolyzable β-γ-oxygen-bridge in autocatalytic degradation of rhinovirus RNA; format: biochemical
# Excerpt: 3. The essential role of the hydrolyzable β-γ-oxygen-bridge in the nucleoside triphosphate for the autocatalytic degradation of the rhinovirus-ribonucleic acid was shown by: […]
# [2] = test system: radioactive-labeled rhinovirus ribonucleic acid; experiment: Synergism test: inducible decomposition of P32-labeled rhinovirus RNA; format: biochemical; settings: 30 minutes, pH 7.6, 36° C.
# Procedure: 6. The synergistic effect of the complexing agent (e.g. sodium pyrophosphate) and phosphorylating agent (e.g. adenosine triphosphate) was shown by means of the inducible decomposition of radioactive-labeled rhinovirus ribonucleic acid: Aliquotes (10^6 plaque-forming units) of purified rhinoviruses, the ribonucleic acid of which had been labeled with phosphorus-32, were incubated for 30 minutes with 5 n moles of adenosine triphosphate, either separately or with increasing quantities of sodium pyrophosphate at a pH-value of 7.6 and 36° C. As control values sodium pyrophosphate was used in various concentrations without adenosine triphosphate.
smiles,measurement,setting,value
"Nc1ncnc2c1ncn2[C@@H]1O[C@H](COP(=O)(O)OP(=O)(O)OP(=O)(O)O)[C@@H](O)[C@H]1O [Adenosine triphosphate, adenosine triphosphate]",removal of P^32-labeled γ-phosphate during the reaction with rhinovirus,[1]; Mg^++ -ion free medium,formation of adenosine diphosphate and rhinovirus-bonded P^32
same,% degradation of the viral ribonucleic acid,"[2]; adenosine triphosphate 5 n moles, sodium pyrophosphate 0",< 7.5%
Nc1ncnc2c1ncn2[C@@H]1O[C@H](COP(=O)(O)OP(=O)(O)NP(=O)(O)O)[C@@H](O)[C@H]1O [Adenosine-imido-diphosphate],initiating the autocatalytic inactivation of the rhinoviruses,[1],completely ineffective
Nc1ncnc2c1ncn2[C@@H]1O[C@H](COP(=O)(O)OP(=O)(O)O)[C@@H](O)[C@H]1O [adenosine diphosphate],induction of the autocatalytic RNA-degradation,[1],Inactivity
"O=P([O-])([O-])OP(=O)([O-])[O-].[Na+].[Na+].[Na+].[Na+] [Sodium pyrophosphate, sodium pyrophosphate]",% degradation of the viral ribonucleic acid,"[2]; adenosine triphosphate 0, sodium pyrophosphate 50 n moles",< 10%
same,% degradation of the viral ribonucleic acid,"[2]; adenosine triphosphate 0, sodium pyrophosphate 250 n moles",< 10%
same,% degradation of the viral ribonucleic acid,"[2]; adenosine triphosphate 0, sodium pyrophosphate 500 n moles",< 10%

# Reference: patent US4046879A, “Antiviral compositions” (priority 1975, dated 1977)
